Source: patent US5576324A, “Quinoline derivatives or salt thereof and remedy for cardiac diseases containing the same” (Kowa Co., Ltd., priority 1992, dated 1996)
Structures can show the parent of a compound that is named as a salt.

What was measured:
[1] = system: Mouse Arrhythmia Induced by Chloroform (ventricular fibrillation); experiment: Action on Mouse Arrhythmia Induced by Chloroform; format: in vivo; conditions: 100 mg/kg given to mice, 20 min before chloroform
Procedure: Action on Mouse Arrhythmia Induced by Chloroform
Test compounds (100 mg/kg) were given to mice, and 20 minutes thereafter, the mice were confined in a pot filled with chloroform. Upon respiratory stoppage, the mice were immediately taken out of the pot, and electrocardiodiagram (lead II) was recorded to obtain ventricular tachycardia, ventricular fibrillation, and period until the cardiac arrest.

[2] = system: Guinea Pig Atrium (left atrium contraction); experiment: Inotropic action on guinea pig atrium samples; conditions: Cavia porcellus, 10^-7 M, 1 Hz, 32° C., read-out: Increment of Contraction of the left atrium
Procedure: Inotropic Action and Action Against Time-dependent Action on Guinea Pig Atrium Samples
Guinea pigs were smashed at the head, and were exsanguinated through a cut in the carotid artery. Their hearts were taken out. From each heart, the right and left atria were obtained. The atria were suspended in Krebs-Henzereit solution at 32° C. through which a gas containing 95% oxygen and 5% carbon dioxide was passed. The tensile strength was measured with a strain gauge, and was amplified and recorded. Beats of right atria were counted using a tachometer, and the counts were regarded as the cardiac rate. Electric pulses (1 Hz, 5 msec) having twice the magnitude of the threshold were applied onto the left atria. The samples were given to […] in an accumulative manner at intervals of 5 minutes.
The results are expressed by the increment of contraction of the left atrium when 10^-7 M of a sample was administered.

[3] = system: Blood Flow of a Hind Leg of Anesthetic Dog; experiment: Action on the Blood Flow of a Hind Leg of Anesthetic Dog; format: in vivo; conditions: Canis lupus familiaris; 100 μg into femoral artery, anesthetized dog; read-out: Increment of Blood Flow
Procedure: Action on the Blood Flow of a Hind Leg of Anesthetic Dog
Adult crossbred dogs were put under anesthesia with pentobarbital-Na (30 mg/kg) by intravenous injection, Heparin was administered to each dog, and an extracorporeal circulation circuit was established in the femoral artery, The blood flow in the hind leg was measured with an electromagnetic hemodromometer placed on the circuit, The samples were administered at a dose of 100 μg into the feromal artery through a rubber tube provided on the circuit.

SMILES | % Inhibition of ventricular fibrillation [1] [%] | activation at 0.1 µM [2] [%] | change in vivo at 0.1 mg [3] [%]
NCC1Cc2cc(Cl)c3c(c2O1)CCC(=O)N3 (stereo not drawn) [Example 121] | 100 | – | –
Cc1cc2c(c3ccc(=O)[nH]c13)OC(CN)C2C (stereo not drawn) [Example 13, (2RS, 3SR)-2-Aminomethyl-3,5-dimethyl-2,3,6,7-tetrahydrofuro[2,3-f]quinoline-7-one.HCl] | – | 31.8 | –
CCCCNCC1Cc2cc(C)c3[nH]c(=O)ccc3c2O1 (stereo not drawn) [Example 94, 2-(n-butylamino)methyl-5-methyl-2,3,6,7-tetrahydrofuro[2,3-f]quinoline-7-one.HCl] | 100 | – | –
Cc1cc2c(c3c1NC(=O)CC3)OC(CF)C2 (stereo not drawn) [Example 108] | – | – | 54.8
Cc1cc2c(c3c1NC(=O)CC3)OC(C)(CN)C2 (stereo not drawn) [Example 21] | – | – | 35.7
NCC1Cc2c(ccc3[nH]c(=O)ccc23)O1 (stereo not drawn) [Example 50, 2-Aminomethyl-1,2,6,7-tetrahydrofuro[3,2-f]quinoline-7-one] | – | 11.1 | 26.7
CC(=O)OCC1Cc2cc(C)c3[nH]c(=O)ccc3c2O1 (stereo not drawn) [Example 103, 2-Acetoxymethyl-5-methyl-2,3,6,7-tetrahydrofuro-[2,3-f]quinoline-7-one] | – | 13.1 | 66.7
NCC1Cc2cc(Cl)c3[nH]c(=O)ccc3c2O1 (stereo not drawn) [Example 120, 2-Aminomethyl-5-chloro-2,3,6,7-tetrahydrofuro[2,3-f]quinoline-7-one.HCl] | 90 | – | 110
COCC1Cc2cc(C)c3[nH]c(=O)ccc3c2O1 (stereo not drawn) [Example 109] | – | 20.3 | –
Cc1cc2c(c3c1NC(=O)CC3)OC(CNS(C)(=O)=O)C2 (stereo not drawn) [Example 114] | – | 18.8 | –
COc1ccc(CCNCC2Cc3cc(C)c4[nH]c(=O)ccc4c3O2)cc1OC (stereo not drawn) [Example 99] | – | – | 97
Cc1cc2c(c3ccc(=O)[nH]c13)OC(CI)C2 (stereo not drawn) [Example 106, 2-Iodomethyl-5-methyl-2,3,6,7-tetrahydrofuro-[2,3-f]quinoline-7-one] | – | 46.8 | 39.5
Cc1cc2c(c3ccc(=O)[nH]c13)OC(CF)C2 (stereo not drawn) [Example 107, 2-Fluoromethyl-5-methyl-2,3,6,7-tetrahydrofuro-[2,3-f]quinoline-7-one] | – | – | 54.1
Cc1cc2c(c3ccc(=O)[nH]c13)OC(C)(CN)C2(C)C (stereo not drawn) [Example 22] | 90 | – | –
Cc1cc2c(c3ccc(=O)[nH]c13)OC(CN1CCCCC1)C2 (stereo not drawn) [Example 82] | – | – | 31
CCN(CC)CC1Cc2cc(C)c3c(c2O1)CCC(=O)N3 (stereo not drawn) [Example 77] | 100 | – | –
Cc1cc2c(c3ccc(=O)[nH]c13)OC(C)(CN)C2 (stereo not drawn) [Example 20] | 100 | – | –
